# Where “and” joins values, the source holds several entries; their conditions need not be identical. Equal entries are not always repeated.
# Tests used:
# [1] = Pharmacokinetics when taken fasting, with milk or with food; type: in vivo, human; details: for Tmax: human, in vivo, oral
# Procedure: In yet another suitable dosing regimen, Compound 1 was administered with a fluid, e.g., a milk or water, with empty stomach which improves pharmacokinetical exposure (Table 12). Counterintuitively, milk helped patients with gastrointestinal adverse effects.
# In yet another suitable dosing regimen, Compound 1 was administered with food which delayed the Tmax (Table 13).
# [2] = tested on: solid tumor that is metastatic, unresectable, or recurrent; assay: Phase I dose escalation trial: preliminary antitumor activity; type: in vivo, human
# Procedure: Each cycle consists of twice-daily oral administration of the compound for 4 weeks. Cycles were repeated every 4 weeks (28 days) until progression of disease, unacceptable toxicity, or another discontinuation criterion is met. The dose escalation trial was conducted as open label and multicenter trial. A modified Simon accelerated titration scheme was used for dose escalation.
# The primary objective of the trial was to determine the safety, tolerability, and recommended phase II dose (RP2D). The secondary objectives of the trial were to determine the pharmacokinetic profile of the compound, pharmacodynamics of the compound, and preliminary antitumor activity of the compound.
# The inclusion criteria included histologically or cytologically confirmed solid tumor that is metastatic, unresectable, or recurrent; >18 years of age; Measurable disease by RECIST; and Kamofsky ≥70%. The exclusion criteria included chemotherapy, radiotherapy, immunotherapy or investigational agent within 4 weeks of first dose; surgery within 4 weeks of first dose; and known brain metastases.
# [3] = Phase I dose escalation trial: safety, tolerability, adverse events; type: in vivo, human; details: Phase 1, dose escalated from 20 mg to 2000 mg/day
# Source text: The most common adverse events were: diarrhea, nausea, and fatigue. Grade 3 or greater events include: fatigue and diarrhea.
# colorectal cancer (CRC) = assay: Survival of treated CRC patients by biomarker status or exposure; type: in vivo, human
# Source text: FIG. 6A depicts the relationship between Progression Free Survival (PFS) and exposure of a Compound of the Invention in colorectal cancer (CRC) patients. […] FIG. 6B depicts the overall survival (OS) in evaluable CRC patients. OS of evaluable CRC patients treated with a Compound of the Invention (defined as ≥4 weeks of Compound of the Invention, 80% compliance) compared with historical controls [Cetuximab for the treatment of colorectal cancer, 2007, N. Engl. J. Med. 357 2040-2048]. FIG. 6C depicts PFS in evaluable CRC patients. PFS of evaluable CRC patients treated with a Compound of the Invention (defined as ≥4 weeks of Compound of the Invention, 80% compliance) compared historical controls (Open-Label Phase III Trial of Panitumumab Plus Best Supportive Care Compared with Best Supportive Care Alone in Patients with Chemotherapy-Refractory Metastatic Colorectal Cancer, 2007, J. Clin. Onc. 25: 1658-1665].
# (§1) Understanding the clinical relevance of the cancer stemness markers and identifying their predictive response to the Compound of the Invention is used herein to assist clinical development by selecting patients that will most likely to derive clinical benefit. In some embodiments, the methods provided herein use one or more well-known cancer stemness marker(s), such as, for example, the expression of p-STAT3 and/or other cancer stem cell related proteins such as β-catenin and NANOG. All these proteins can be easily detected using any of a variety of art-recognized techniques. In some embodiments, the cancer sternness marker is detected with immunohistochemistry with antibodies. Using the archival tissue samples collected from the phase I trial with the Compound of the Invention, the patient response to the Compound of the Invention was analyzed based on biomarker status. […] A significant improvement in survival was detected for patients with nuclear β-Catenin localization compared with patients having β-catenin localized to the cell membrane, HR=0.043, p value <0.001. As further evidence, in an in vitro study screening a panel of cancer cells, the cell lines with nuclear β-Catenin show a lower IC50 for the Compound of the Invention. […] Thus, STAT3 activation is involved in nuclear β-catenin regulation. In addition, β-catenin status is a biomarker for predicting responsiveness of CRC patients to the Compound of the Invention.
# CRC patient's archival tumor tissue samples were analyzed through immunohistochemistry (IHC) using labeled antibodies against phosphorylated STAT3 (p-STAT3). […] For instance, 40% of the patients with high p-STAT3 levels before treatment survived longer than 100 weeks whereas only 10% of those with low or no p-STAT3 levels before treatment survived beyond 100 weeks. This further confirms that the Compound of the Invention downregulates that STAT3 pathway, and that the STAT3 pathway is implicated in colorectal cancers.
# (§2) CRC patient's archival tumor tissue samples were analyzed through immunohistochemistry (IHC) using labeled antibodies against β-catenin. […] For instance, close to 40% of the patients with high nuclear β-catenin levels before treatment survived longer than 100 weeks whereas none of those with high levels of membranous β-catenin survived beyond 25 weeks. This further confirms that the Compound of the Invention disrupts or somehow modulates the β-catenin function, and that the β-catenin pathway is implicated in colorectal cancers.
# β-catenin [4] = assay: Immunohistochemistry of CRC patient tumor tissue for β-catenin; type: in vivo, human; details: FIG. 4A
# Procedure: as §2
# panel of cancer cells = assay: In vitro screening of a panel of cancer cells; type: cell-based
# Source text: as §1, with “In addition, β-catenin status is a biomarker for predicting responsiveness of CRC patients to the Compound of the Invention.” left out
# [5] = Safety of highly pure Compound 1 in animal experiments; type: in vivo; details: highly pure Compound 1, mice
# Procedure: For example, FIG. 13 of WO 2011/116398 and WO 2011/116399 illustrates the toxicity observed with a composition with about 90% purity for Compound 1, while FIG. 14 of WO 2011/116398 and WO 2011/116399 illustrates that the highly pure compositions having about 95% or greater purity for Compound 1 are safe and effective. In a Phase 1 study, the dose of Compound 1 was escalated from 20 mg to 2000 mg/day, and a maximum tolerated dose (MTD) not reached. […] The clinical safety profile of the substantially pure compositions of Compound 1 is among the best for oncology drugs in history.
# β-catenin [6] = assay: β-catenin protein levels in cancer cell lines; type: cell-based; details: in vitro within cancer cell lines
# Source text: as §1, with “In addition, β-catenin status is a biomarker for predicting responsiveness of CRC patients to the Compound of the Invention.” left out
# [7] = Total Daily Dose 20 mg, Colon adencarcinoma
# [8] = Total Daily Dose 400 mg, Colon adenocarcinoma
# [9] = Total Daily Dose 400 mg, Ovarian carcinoma
# [10] = Total Daily Dose 500 mg, Breast carcinoma (triple negative)
compound,measurement,setting,value
"CC(=O)c1cc2c(o1)C(=O)c1ccccc1C2=O [Compound 1, 2-acetylnaphtho[2,3-b]furan-4,9-dione]",Tmax,"[1]; Patient 20, Fasting",2 h
same,Tmax,"[1]; Patient 20, With Food",8 h
same,Tmax,"[1]; Patient 20, With Milk",2 h
same,Tmax,"[1]; Patient 21, Fasting",6 h
same,Tmax,"[1]; Patient 21, With Food",6 h
same,Tmax,"[1]; Patient 21, With Milk",6 h
same,Tmax,"[1]; Patient 22, Fasting",8 h
same,Tmax,"[1]; Patient 22, With Food",10 h
same,Tmax,"[1]; Patient 22, With Milk",8 h
same,Tmax,"[1]; Patient 24, With Food",10 h
same,Tmax,"[1]; Patient 24, With Milk",6.3 h
same,Tmax,"[1]; Patient 27, With Food",6 h
same,Tmax,"[1]; Patient 27, With Milk",0.5 h
same,Tmax,"[1]; Patient 28, With Food",10 h
same,Tmax,"[1]; Patient 28, With Milk",6 h
same,AUC0-24hrs Fold Change,[1]; with Milk versus Fasting,1.56 and 1.55
same,Cmax Fold Change,[1]; with Milk versus Fasting,1.52 and 1.13
same,antitumor activity in a kidney with colon cancer lesions,"[2]; 20 mg QD, very high concentration of the drug in urine",signs of particularly potent antitumor activity
same,regression of a colon cancer metastatic lesion to kidney,[2]; Patient 0001,complete regression
same,"disease control (disease stabilization and tumor regression), patients evaluable for tumor response","[2]; Phase I, tumors refractory to chemotherapies",65%
same,Weeks on Study,[2]; [7],76 weeks
same,regression,[2]; [7],22%
same,Weeks on Study,"[2]; Total Daily Dose 80 mg, Head and fleck carcinoma",17 weeks
same,Weeks on Study,"[2]; Total Daily Dose 320 mg, Colon adenocarcinoma (two patients)",24 weeks and 12 weeks
same,CEA,[2]; [8],50%
same,Weeks on Study,[2]; [8],11 weeks
same,Weeks on Study,"[2]; Total Daily Dose 400 mg, Gastric adenocarcinoma",19 weeks
same,CA125,[2]; [9],CA125 normalization
same,Weeks on Study,[2]; [9],16 weeks
same,Weeks on Study,[2]; [10],29 weeks
same,outcome after surgical resection of remaining hollowed lesion,[2]; [10],resected; patient disease free)
same,Weeks on Study,"[2]; Total Daily Dose 800 mg, Chondrosarocoma",13 weeks
same,Weeks on Study,"[2]; Total Daily Dose 1000 mg, Adrenocarticoid carcinoma",17 weeks
same,Weeks on Study,"[2]; Total Daily Dose 1000 mg, Colon: adencarcinoma",16 weeks
same,Weeks on Study,"[2]; Total Daily Dose 1400 mg, Melanona",16 weeks
same,maximum tolerated dose (MTD),[3],not reached
same,patients surviving beyond 25 weeks,colorectal cancer (CRC); CRC patients (N=13) with high levels of membranous β-catenin,none
same,patients surviving longer than 100 weeks,colorectal cancer (CRC); CRC patients (N=13) with high nuclear β-catenin levels before treatment,~40%
same,patients surviving longer than 100 weeks,colorectal cancer (CRC); CRC patients (N=13) with high p-STAT3 levels before treatment,40%
same,patients surviving beyond 100 weeks,colorectal cancer (CRC); CRC patients (N=13) with low or no p-STAT3 levels before treatment,10%
same,"Progression Free Survival (PFS), plasma concentrations above 2.0 uM for greater than 4 hours versus not reaching that exposure","colorectal cancer (CRC); CRC patients, FIG. 6A",statistically significant difference
same,"survival, high level of p-STAT3 or NANOG versus low or negative levels","colorectal cancer (CRC); CRC patients, phase I archival tissue",trend of increased survival
same,"survival HR, nuclear β-Catenin localization versus β-catenin localized to the cell membrane","colorectal cancer (CRC); CRC patients, phase I archival tissue, p value <0.001",0.043
same,accumulation of β-catenin in cell nucleus in tumor tissues (IHC),β-catenin [4],effective in removing or preventing the accumulation of β-catenin in cell nucleus
same,IC50 in cell lines with nuclear β-Catenin,panel of cancer cells,lower IC50
same,adverse effects,[5],No signs of any adverse effects
same,β-catenin protein levels,β-catenin [6],reduced
